Each block holds one compound with its values, some of them ahead of it.
Experiments:
Plasmodium falciparum [1] = assay: Antiplasmodial activity against chloroquine-sensitive Plasmodium falciparum 3D7 assessed as parasitic growth inhibition incubated for 72 hrs by SYBR Green staining based fluorescence analysis; format: functional, organism-based; conditions: 3D7, 72 h
Plasmodium falciparum [2] = assay: Antiplasmodial activity against chloroquine-resistant Plasmodium falciparum W2 assessed as parasitic growth inhibition incubated for 72 hrs by SYBR Green staining based fluorescence analysis; format: functional, organism-based; conditions: W2, 72 h
Plasmodium falciparum [3] = assay: Antiplasmodial activity against Plasmodium falciparum 3D7; format: functional, organism-based
Plasmodium falciparum [4] = assay: Antimalarial activity against Plasmodium falciparum Dd2 assessed as reduction in parasitic growth incubated for 48 hrs by SYBR green assay; format: functional, organism-based; conditions: Dd2, 48 h
Plasmodium falciparum [5] = assay: Antiplasmodial activity against Plasmodium falciparum Dd2 assessed as reduction in parasitic growth incubated for 48 hrs by SYBR Green staining based fluorescence analysis; format: functional, organism-based; conditions: Dd2, 48 h
Plasmodium falciparum [6] = assay: Antimalarial activity against Plasmodium falciparum assessed as reduction in parasite growth incubated for 48 hrs by Giemsa staining based analysis; format: functional, organism-based
Plasmodium falciparum [7] = assay: Antiplasmodial activity against Plasmodium falciparum K1; format: functional, organism-based
Plasmodium falciparum [8] = assay: Antiplasmodial activity against Plasmodium falciparum 3D7 assessed as reduction in parasite growth by Lactate dehydrogenase assay; format: functional, organism-based
Plasmodium falciparum [9] = assay: Antimalarial activity against chloroquine-resistant Plasmodium falciparum W2 assessed as growth inhibition incubated for 48 hrs by flow cytometry based analysis; format: functional, organism-based; conditions: W2, 48 h
[10] = Cytotoxicity against African green monkey Vero cells assessed as reduction in cell viability incubated for 24 hrs by fluorescence based analysis; format: toxicity; conditions: African green monkey (Chlorocebus sabaeus)
[11] = Cytotoxicity against African monkey Vero cells assessed as reduction in cell viability incubated for 72 hrs by MTT assay; format: toxicity, cell-based; conditions: chlorocebus sabaeus
Plasmodium falciparum [12] = assay: Antimalarial activity against chloroquine-sensitive Plasmodium falciparum 3D7 assessed as reduction in parasite growth incubated for 36 hrs by Giemsa staining based microscopic analysis; format: functional, organism-based; conditions: 3D7, 36 h
[13] = Cytotoxicity against African green monkey Vero cells; format: toxicity, cell-based; conditions: chlorocebus sabaeus

SMILES: O=Cc1cc(OCc2cn(CCNc3ccnc4cc(Cl)ccc34)nn2)ccc1Br
IC50 (Plasmodium falciparum [1]): 4.3 µM
IC50 (Plasmodium falciparum [2]): 5.07 µM

IC50 (Plasmodium falciparum [3]): 5.17 µM
SMILES: Cc1ccc(C(CCN(C)C)NCC(C)Nc2ccnc3cc(Cl)ccc23)cc1 (stereo not given)

SMILES: COc1ccc2nc(/C=C/c3ccc([N+](=O)[O-])cc3)cc(N3CCCCC3)c2c1
IC50 (Plasmodium falciparum [4]): > 10 µM

SMILES: COc1ccc2nc(/C=C/c3ccncc3)cc(N3CCN(C)CC3)c2c1
IC50 (Plasmodium falciparum [5]): 0.61 µM

SMILES: COc1ccc2nc(/C=C/c3ccc([N+](=O)[O-])cc3)cc(Nc3ccccc3)c2c1
IC50 (Plasmodium falciparum [4]): 0.509 µM

IC50 (Plasmodium falciparum [3]): 8.25 µM
SMILES: COc1ccc(C(CCN(C)C)NCC(C)Nc2ccnc3cc(Cl)ccc23)cc1 (stereo not given)

SMILES: C/C(=N/c1ccccc1Nc1ccnc2cc(Cl)ccc12)c1ccc2ccccc2c1
IC50 (Plasmodium falciparum [6]): 77.6 µM

SMILES: Nc1ccccc1Nc1ccnc2cc(Cl)ccc12
IC50 (Plasmodium falciparum [6]): 35.3 µM

IC50 (Plasmodium falciparum [3]): 3.43 µM
SMILES: CC(CNC(CCN(C)C)c1ccccc1)Nc1ccnc2cc(Cl)ccc12 (stereo not given)

IC50 (Plasmodium falciparum [3]): 2.69 µM
SMILES: CC(CNC(CCN(Cc1ccccc1)Cc1ccccc1)c1ccccc1)Nc1ccnc2cc(Cl)ccc12 (stereo not given)

IC50 (Plasmodium falciparum [7]): 0.92 µM
SMILES: Cc1ccc(C(=O)NNc2ccnc3cc(Cl)ccc23)cc1

SMILES: CC(C)(C)NC(=O)/C=C/c1cccc(Nc2ccnc3cc(Cl)ccc23)c1
IC50 (Plasmodium falciparum [8]): 14.8 µM

IC50 (Plasmodium falciparum [7]): 5.51 µM
SMILES: O=[N+]([O-])c1ccc(Nc2ccnc3cc(Cl)ccc23)cc1

IC50 (Plasmodium falciparum [7]): 0.6 µM
SMILES: O=C(NNc1ccnc2cc(Cl)ccc12)c1cc(-c2ccccc2)nc2ccccc12

SMILES: O=C1c2ccc(N3CCCCC3)cc2C(=O)N1CCNc1ccnc2cc(Cl)ccc12
IC50 (Plasmodium falciparum [9]): 0.163 µM
IC50 at 24 h [10]: 28.8 µM

SMILES: O=Cc1cc(OCc2cn(CCCNc3ccnc4cc(Cl)ccc34)nn2)ccc1Br
IC50 (Plasmodium falciparum [1]): 6.29 µM
IC50 (Plasmodium falciparum [2]): 7.09 µM

SMILES: O=Cc1cc(OCc2cn(-c3ccnc4ccc(Cl)cc34)nn2)ccc1Br
IC50 (Plasmodium falciparum [1]): 6.19 µM
IC50 (Plasmodium falciparum [2]): 7.39 µM

SMILES: O=C(Cn1cc(COc2ccccc2)nn1)NCCCNc1ccnc2cc(Cl)ccc12
CC50 at 72 h [11]: 40.6 µM
IC50 (Plasmodium falciparum [12]): 180 µM

SMILES: Cc1ccc(OCc2cn(CC(=O)NCCCCNc3ccnc4cc(Cl)ccc34)nn2)cc1
CC50 at 72 h [11]: 5.02 µM
IC50 (Plasmodium falciparum [12]): 83.5 µM

SMILES: O=C(Cn1cc(COc2ccc(Cl)cc2)nn1)NCCCCNc1ccnc2cc(Cl)ccc12
CC50 at 72 h [11]: 10.9 µM
IC50 (Plasmodium falciparum [12]): 92.8 µM

SMILES: CC1=NC(=S)N(Nc2ccnc3cc(Cl)ccc23)C(=O)C1
IC50 (Plasmodium falciparum [6]): 11.9 µM

SMILES: COC(=O)/C=C/c1ccc(Nc2ccnc3cc(Cl)ccc23)cc1
IC50 (Plasmodium falciparum [8]): 3.22 µM

SMILES: O=C1c2ccc(N3CCCCC3)cc2C(=O)N1CCCCCCNc1ccnc2cc(Cl)ccc12
IC50 (Plasmodium falciparum [9]): 0.012 µM
IC50 at 24 h [10]: 25.5 µM

IC50 (Plasmodium falciparum [7]): 3.48 µM
SMILES: COc1ccc(NNc2ccnc3cc(Cl)ccc23)cc1

SMILES: COc1ccc2nc(/C=C/c3ccncc3)cc(N3CCCC3)c2c1
IC50 (Plasmodium falciparum [5]): 0.367 µM

IC50 (Plasmodium falciparum [7]): 1.13 µM
SMILES: COc1ccc(C(=O)NNc2ccnc3cc(Cl)ccc23)cc1

SMILES: CC1(C)OB(c2ccc(OCc3cn(CCCNc4ccnc5cc(Cl)ccc45)nn3)cc2C=O)OC1(C)C
IC50 (Plasmodium falciparum [1]): 5.18 µM
IC50 (Plasmodium falciparum [2]): 4.64 µM

SMILES: COc1ccc(/C(C)=N\c2ccccc2Nc2ccnc3cc(Cl)ccc23)cc1OC
IC50 (Plasmodium falciparum [6]): 49.7 µM

IC50 (Plasmodium falciparum [3]): 3.89 µM
SMILES: COc1ccc(C(CCN2CCOCC2)NCC(C)Nc2ccnc3cc(Cl)ccc23)cc1 (stereo not given)

SMILES: COC(=O)/C=C/c1ccccc1Nc1ccnc2cc(OC)ccc12
IC50 (Plasmodium falciparum [8]): 15.3 µM

SMILES: CC1(C)OB(c2ccc(OCc3cn(CCNc4ccnc5cc(Cl)ccc45)nn3)cc2C=O)OC1(C)C
IC50 (Plasmodium falciparum [1]): 7.37 µM
IC50 (Plasmodium falciparum [2]): 6.23 µM

SMILES: O=C1c2cccc(N3CCOCC3)c2C(=O)N1CCNc1ccnc2cc(Cl)ccc12
IC50 (Plasmodium falciparum [9]): 0.18 µM
IC50 at 24 h [10]: 28.6 µM

SMILES: COc1ccc2nc(/C=C/c3ccc([N+](=O)[O-])cc3)cc(NC3CCCCC3)c2c1
IC50 (Plasmodium falciparum [4]): 0.171 µM

SMILES: O=Cc1ccc(OCc2cn(CC(=O)NCCCNc3ccnc4cc(Cl)ccc34)nn2)cc1
CC50 at 72 h [11]: 12.2 µM
IC50 (Plasmodium falciparum [12]): 0.91 µM

SMILES: O=C1c2ccc(N3CCOCC3)cc2C(=O)N1CCNc1ccnc2cc(Cl)ccc12
IC50 (Plasmodium falciparum [9]): 0.37 µM
IC50 at 24 h [10]: 28.6 µM

SMILES: COc1ccc2nc(/C=C/c3ccncc3)cc(NC3CCCCC3)c2c1
IC50 (Plasmodium falciparum [5]): 0.277 µM

SMILES: O=C1c2cccc(N3CCCCC3)c2C(=O)N1CCCNc1ccnc2cc(Cl)ccc12
IC50 (Plasmodium falciparum [9]): 0.162 µM
IC50 at 24 h [10]: 55.8 µM

SMILES: CC1(C)OB(c2ccc(OCc3cn(-c4ccnc5ccc(Cl)cc45)nn3)cc2C=O)OC1(C)C
IC50 (Plasmodium falciparum [1]): 6.49 µM
IC50 (Plasmodium falciparum [2]): 6.19 µM

SMILES: COc1ccc2nc(/C=C/c3ccc([N+](=O)[O-])cc3)cc(N3CCN(C)CC3)c2c1
IC50 (Plasmodium falciparum [4]): 0.452 µM

IC50 (Plasmodium falciparum [7]): 0.09 µM
SMILES: Cc1cc(C(=O)NNc2ccnc3cc(Cl)ccc23)c2ccccc2n1

SMILES: COc1ccc2nc(/C=C/c3ccncc3)cc(N3CCN(CCO)CC3)c2c1
IC50 (Plasmodium falciparum [5]): > 10 µM

SMILES: COc1ccc2nc(/C=C/c3ccc([N+](=O)[O-])cc3)cc(N3CCOCC3)c2c1
IC50 (Plasmodium falciparum [4]): > 10 µM

SMILES: CCc1nc(N)nc(N)c1-c1ccc(Cl)cc1 [PYRIMETHAMINE]
CC50 [13]: 18.1 µM

SMILES: C=C[C@H]1CN2CC[C@H]1C[C@H]2[C@H](O)c1ccnc2ccc(OC)cc12 [QUININE]
IC50 (Plasmodium falciparum [2]): 0.504 µM
IC50 (Plasmodium falciparum [7]): 0.83 µM
